Values of other authors as cited in US6768024B1, “Triamine derivative melanocortin receptor ligands and methods of using same” (Lion Bioscience AG, priority 2000, dated 2004).

Tests used:
human subjects = settings: pilot phase I
rats = settings: IP, ICV
rodent models = settings: normal, Zucker fatty and diet-induced obesity rodent models

MELANOTAN-II
penile erections (human subjects): cause penile erections

Ac-Nle-Gln-His-(D)-Phe-Arg-(D)-Trp-Gly-NH2 [HP228]
hypophagia and weight loss (rats): notable hypophagia and weight loss

CC(C)CC(N(C)C)C1(c2ccc(Cl)cc2)CCC1 (stereo not drawn) [Sibutramine]
body weight (rodent models): lower body weight
